Measurements taken from patent US20210283146A1, “COMPOSITION CONTAINING A 7BETA-HYDROXYCHOLESTEROL AND A LIPID VEHICLE, AND ITS USE IN THE TREATMENT OF NEOPLASTIC PATHOLOGIES” (priority 2018, published 2021).

Columns and labels:
beagle dogs [1] = conditions: dog, in vivo
beagle dogs [2] = test: Study of tolerance of BIM2b PO in healthy dogs
[3] = Analysis of BIM2b in the brains of mice treated per os with BIM2b PO (HPTLC); type: in vivo, mouse; conditions: for Compound BIM2b (μg/g of brain): healthy mice, BIM2b PO per os
Description: The mouse brains dried and stored invididually in cryotubes at […] in liquid nitrogen are left to return to ambient temperature. Each brain is weighed and put in the Potter; 4 ml of 0.74% of cold KCl is added and the rest of the procedure takes place on a bed of ice. Each brain is ground 6 times at 1000 rev/min, each cycle comprising 5 minutes of grinding and 5 minutes of rest. The oxysterols are extracted according to the Folch procedure described above (II.3.). The lipid residue is then subjected to adsorption chromatography on a silica column.
The silica (8 g) is prepared in 40 ml of the hexane:ether mixture (diethyl-oxide (3:7, v/v) and then poured into the appropriate columns. The height of the silica bed is 18 cm and its volume is 15 ml.
A suitable quantity of mouse brain extract is dissolved in 1 ml of the first eluent system and deposited on the silica bed. Elution takes place in 4 steps in order to concentrate the fractions containing the oxysterols and remove as far as possible the lipids contaminating the mouse brain, in particular cholesterol.
The groups of fractions are evaporated to dryness, dissolved in acetone and the appropriate volumes are subjected to HPTLC chromatography.
The treatment of the healthy mice per os with BIM2b PO and the provenance of the brains are described in Example 4.
The compound BIM2b and its metabolites in the brains were separated, detected and quantified by HPTLC as described in the Methods section.

wild-type mice [4] = test: Investigation of toxicity of BIM2b PO in healthy mice
Description: (§1) The composition from Example 2 was administered orally (by tube) to wild-type mice at a rate of 1.5 mg (50 μl of BIM2 PO) per animal, twice a day, 5 days out of 7 with a maximum duration of treatment of 21 days.
(§2) In the treated group, 2 mice were sacrificed after 18 days and 3 mice were sacrificed after 21 days. In the control group, 3 mice were sacrificed after 21 days.
(§3) The samples of internal organs (stomach, alimentary canal, liver, kidney, lung, heart) were immersed in 4% formaldehyde for 72 h and stored at 4° C., and then embedded in paraffin. The samples underwent macroscopic analysis before and after thinning.
(§4) Histological examination of the internal organs fixed with formaldehyde and toxicological quantifications were carried out on sections stained with haematoxylin-eosin-saffron according to a 4-level evaluation system complying with the nomenclature (3).
(§5) All the sections were examined for possible signs of cellular alteration, degeneration, necrosis, inflammation, fibrosis etc.

[5] = in vivo
Description: The GBM tumour was obtained by necropsy of a dog with glioblastoma, which was treated by the oral route with BIM2b PO and which lived with a good quality of life for 8 months. Necropsy was carried out 21 days after stopping the treatment with BIM2b PO. The tumour was fixed in formol mainly for histopathology analysis and a remaining fragment was analysed for quantification of BIM2b.
The fragments of dog brains, stored individually in cryotubes at +4° C. in a bath of formol, are dried on sopalin paper before they are weighed and put in the Potter. Just as for extraction of the mouse brains, each fragment was extracted after adding 4 ml of cold 0.74% KCl. The procedures for homogenization and extraction are the same as was described for the mouse brains in the Methods section.
Dry lipid extract of the dog GBM tumour fragment was thus obtained and was chromatographed sequentially on a SEP PAK Classic Silica cartridge; then on SEP PAK Plus C18 (with eluent A=5 mM of ammonium acetate/ultrapure water and B=5 mM of ammonium acetate/MetOH).
The compound BIM2b and its metabolites in the tumour are separated, detected and quantified by HPTLC as described in Section II) Methods.

wild-type mice [6] = conditions: mouse, in vivo
Description: as §1, §2, §3, §4, §5

spontaneous gliomas = test: Anti-GBM efficacy of BIM2b PO by the oral route in dogs with spontaneous gliomas; type: in vivo; conditions: oral treatment; mean survival of a dog with GBM 2-3 months
Description: 9 dogs with spontaneous gliomas diagnosed by imagery were included in the study.
The condition and the tumour volume are evaluated by MRI.
On day D0 (1st administration), the GBM dog subject is examined clinically and a blood sample is collected for analysis of the biochemical parameters. On D15, an electrocardiogram is recorded and a blood sample is taken.
Electrocardiograms, blood samples and MRI are carried out on D42, D63, D84 and D105, then 3 months and 6 months after stopping the treatment.
The tumour response is evaluated by MRI based on the RECIST criteria (Response Evaluation Criteria in Solid Tumours). These criteria define the tumoral response as follows: • progression is an increase in size of the largest axis of the tumour of more than 20% relative to the preceding MRI; • regression is defined by a decrease in the size of the largest axis of the tumour of more than 30% relative to the preceding MRI; • stability is defined by a change in the size of the tumour between a decrease of less than 30% and an increase of less than 20%.

GBM = conditions: cited from earlier work

CC(=O)O[C@H]1C=C2CC(OC(=O)C3COC(C)(C)O3)CC[C@]2(C)C2CC[C@@]3(C)C(CCC3[C@H](C)CCCC(C)C)C21 (stereo in doubt) [BIM2b, 7-acetoxy-10,13-dimethyl-17-(6-methylheptan-2-yl)-2,3,4,7,8,9,10,11,12,13,14,15,16,17-tetradecahydro-1H-cyclopenta[a]phenanthren-3-yl 2,2-dimethyl-1,3-dioxolane-4-carboxylate]
undesirable clinical effects (beagle dogs [1]): did not cause undesirable clinical effects
hepatic or renal toxicity (beagle dogs [2]): did not demonstrate hepatic or renal toxicity
toxicity (conclusion) (beagle dogs [2]; administered as BIM2b PO): does not lead to any toxicity
Compound BIM2b (μg/g of brain) ([3]; Day D2): 12.5 μg/g of brain
Compound BIM2b (μg/g of brain) ([3]; Day D4): 7.1 μg/g of brain
Compound BIM2b (μg/g of brain) ([3]; Day D18): 11.7 μg/g of brain
Compound BIM2b (μg/g of brain) ([3]; Day D22 (treatment stopped on D20)): 1.0 μg/g of brain
percentage of BIM2b found in the brains relative to the total quantity ingested ([3]; on D18): 0.013%
drop in the content of BIM2b in the mouse brain ([3]; on D22, after stopping of the treatment on D20): 91.5%
crossing of the blood-brain barrier (BBB) ([3]; treated healthy mice, oral): crosses the blood-brain barrier (BBB)
toxicity (conclusion) (wild-type mice [4]; oral): does not entrain any toxicity
undesirable clinical effects (wild-type mice [4]; twice a day, 5 times a week): did not give rise to undesirable clinical effects
crossing of the BTB ([5]; dog): crosses the BTB
percentage by weight of BIM2b found in the whole tumour relative to the total quantity ingested ([5]; dog): 0.39%
ratio of percentage in dog tumour to percentage in brains of healthy mice ([5]; 21 days after stopping the treatment): 30 times
hepatic or renal toxicity (biological parameters) (wild-type mice [6]): did not demonstrate hepatic or renal toxicity
survival of the GBM dog subject whose tumour was analysed (spontaneous gliomas): 8 months

CN(C)C/C=C/C(=O)Nc1cc2c(Nc3ccc(F)c(Cl)c3)ncnc2cc1O[C@H]1CCOC1 [afatinib dimaleate]
median survival for patients with GBM (GBM): do not improve the median survival

N.N.[Cl][Pt][Cl] [cisplatin]
median survival for patients with GBM (GBM): do not improve the median survival

O=P1(N(CCCl)CCCl)NCCCO1 (stereo not drawn) [cyclophosphamide]
median survival for patients with GBM (GBM): do not improve the median survival

bleomycin
median survival for patients with GBM (GBM): do not improve the median survival
